Tests used:
[1] = biological target: T1, thromboxane synthetase (Rattus norvegicus, UniProt P49430); assay: inhibition of thromboxane (TX) formation in rat platelets, TXB2 determined by radio-immunoassay (RIA); format: cell-based, Okamoto-Aoki spontaneously hypertensive rats (SHR); settings: 10^-4 M; SHR washed platelets; 10 minutes at 37° C.
T1 construct: The platelets were isolated by centrifuging the PRP for 10 minutes at 1060×g; endogenous in cells; host or cells: washed platelets from arterial blood of Okamoto-Aoki spontaneously hypertensive rats (Taconic Farms)
T1 sequence (P49430 1-533): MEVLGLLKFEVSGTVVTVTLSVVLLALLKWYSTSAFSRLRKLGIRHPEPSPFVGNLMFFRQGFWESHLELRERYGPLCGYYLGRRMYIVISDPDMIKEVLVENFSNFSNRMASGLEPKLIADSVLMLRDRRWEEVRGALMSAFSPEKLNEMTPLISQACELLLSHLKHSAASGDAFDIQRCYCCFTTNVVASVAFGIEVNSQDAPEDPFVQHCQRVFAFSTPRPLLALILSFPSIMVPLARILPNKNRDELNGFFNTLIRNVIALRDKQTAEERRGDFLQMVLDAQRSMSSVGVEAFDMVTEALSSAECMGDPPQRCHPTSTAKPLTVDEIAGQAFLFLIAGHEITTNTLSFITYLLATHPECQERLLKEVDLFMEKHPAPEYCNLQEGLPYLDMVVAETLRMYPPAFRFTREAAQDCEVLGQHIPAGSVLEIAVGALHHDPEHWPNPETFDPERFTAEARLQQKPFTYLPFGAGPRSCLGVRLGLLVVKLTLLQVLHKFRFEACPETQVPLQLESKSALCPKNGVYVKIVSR
Method: Under urethan anesthesia, […]. of arterial blood was collected in one ml. of 3.2% sodium citrate in a polystyrene tube from Okamoto-Aoki spontaneously hypertensive rats (SHR) (Taconic Farms, Germantown, NY) between 19 and 24 weeks in age. The blood was diluted with 3 ml. cold saline and centrifuged at room temperature for 15 minutes at 460×g. The platelet rich plasma (PRP) was separated. The platelets were isolated by centrifuging the PRP for 10 minutes at 1060×g and were washed in 4 ml. cold oxygenated Krebs phosphate buffer, pH 7.4. The chilled platelets recovered from centrifuging at 800×g for 10 minutes were resuspended in oxygenated Krebs phosphate buffer and diluted to contain 4.5-6.0×10^4 platelts/μl.
The inhibition of thromboxane (TX) formation was studied by determing the concentration of thromboxane B2 (TXB2), the stable hydrolysis product of TXA2. Assay samples, prepared on ice, contained 200 μl. platelet suspension, 50 μl. saline, and 50 μl. vehicle or drug under study (OKY-1581, UK-37248-01, 1-benzylimidazole, or indomethacin). The samples were incubated for 10 minutes at 37° C. in a metabolic shaker. The reaction was terminated by immersing the tubes in an ice bath and adding 50 μl. of 0.5M citric acid. The samples were centrifuged for 10 minutes in a refrigerated centrifuge and the supernatants thus obtained were decanted and stored at -20° C. The TXB2 content for each sample was determined by a direct radio-immunoassay (RIA) utilizing a TXB2 specific RIA kit purchased from New England Nuclear, Boston, MA and expressed as pg TXB2 formed minute^-1 sample^-1, from which the percent inhibition of TXB2 formation was calculated. The results of this test on representative compounds of this invention appear in Table I

[2] = system: spontaneously hypertensive rats of the Okamoto strain; assay: hypotensive activity (mean arterial blood pressure) in spontaneously hypertensive rats; format: in vivo; settings: 100 mg/kg or less by gavage, two doses 24 h apart; measured 28 hours after initial dose; mean of 1-3 rats; starting MABP 160±1.5 mm
Method: The novel compounds of the present invention are also active hypotensive agents and were tested for hypotensive activity by the method of P. S. Chan and D. Poorvin, Clinical and Experimental Hypertension, 1 (6), 817-830 (1979). Male, 16 week old, spontaneously hypertensive rats of the Okamoto strain, from Taconic Farms, Germantown, N.Y. having an average mean arterial blood pressure of 160±1.5 mm of mercury are used in the test. One to 3 rats are used per test compound. A rat is dosed by gavage with a test compound, suspended in 2% pre-boiled starch at a concentration of 50 mg/ml, at a dose of 100 mg/kg of body weight or less, with 0.9% sodium chloride loading at a dose 25 ml/kg of body weight. A second identical dose of the test compound, without sodium chloride loading is given 24 hours later. At 28 hours after the initial dose, the mean arterial blood pressure (MABP) is measured by the method of Chan and Poorvin vide supra. The procedure is repeated in a second and third rat when necessary. Based on the data obtained and using the three-stage "sequential probability ratio test" statistical method, the critieria for activity or retest are as follows:
If the blood pressure in the first rat is ≤116 mm mercury the compound is considered active. If the blood pressure is between […], a second rat is used. If the average blood pressure of the first and second rats is ≤122 mm the compound is considered active. If the average blood pressure is between 123 and 137 mm, a third rat is used. If the average blood pressure of the three rats is ≤128 mm the compound is considered active. The results of this test on representative compounds of the present invention appear in Table II below.

| SMILES | inhibition at 100 µM [1] | MABP (mean arterial blood pressure) [2] |
| --- | --- | --- |
| O=C(NCCCn1ccnc1)c1ccco1 [Example 1, N-[3-(1H-Imidazol-1-yl)propyl]-2-furanecarboxamide] | 97% | – |
| O=C(NCCCn1ccnc1)c1sc2ccccc2c1Cl [Example 2, 3-chloro-N--[3-(1H--imidazol-1-yl)propyl]benzo[b]thiophene-2-carboxamide] | 100% | – |
| O=C(NCCCn1ccnc1)c1sc2cc(F)ccc2c1Cl [Example 3, 3-chloro-6-fluoro-N--[3-(1H--imidazol-1-yl)propyl]benzo[b]thiophene-2-carboxamide] | 96% | – |
| Cc1ccc2c(Cl)c(C(=O)NCCCn3ccnc3)sc2c1 [Example 4, 3-chloro-N--[3-(1H--imidazol-1-yl)propyl]-6-methyl-benzo[b]thiophene-2-carboxamide] | 96% | – |
| O=C(NCCCn1ccnc1)c1ccoc1 [Example 5, N-[3-(1H-Imidazol-1-yl)propyl]-3-furanecarboxamide] | 78% | 128 mm Hg |
| O=C(NCCCn1ccnc1)c1ccc(Br)o1 [Example 6, 5-bromo-N--[3-(1H--imidazol-1-yl)propyl]-2-furanecarboxamide] | 82% | – |
| O=C(NCCCn1ccnc1)c1cccs1 [Example 7, N--[3-(1H--imidazol-1-yl)propyl]-2-thiophenecarboxamide] | 93% | – |
| Cc1ccc(C(=O)NCCCn2ccnc2)s1 [Example 8, N--[3-(1H--imidazol-1-yl)propyl]-5-methyl-2-thiophenecarboxamide] | 96% | – |
| O=C(NCCCn1ccnc1)c1cc(Br)c(Br)s1 [Example 9, 4,5-dibromo-N--[3-(1H--imidazol-1-yl)propyl]-2-thiophenecarboxamide] | 100% | – |
| O=C(NCCCn1ccnc1)c1cc2ccccc2o1 [Example 10, N--[3-(1H--imidazol-1-yl)propyl]-2-benzofuranecarboxamide] | 97% | – |
| O=C(NCCCn1ccnc1)c1cc2cc(Cl)ccc2s1 [Example 11, 5-chloro-N--[3-(1H--imidazol-1-yl)propyl]benzo[b]thiophene-2-carboxamide] | 100% | – |
| O=C(C=Cc1ccco1)NCCCn1ccnc1 [Example 14, N--[3-(1H--imidazol-1-yl)propyl]-3-(2-furanyl)-2-propenamide] | 78% | – |
| O=C(C=Cc1cccs1)NCCCn1ccnc1 [Example 15, N--[3-(1H--imidazol-1-yl)propyl]-3-(2-thienyl)-2-propenamide] | 100% | – |
| O=C(NCCCn1ccnc1)c1ccc([N+](=O)[O-])o1 [Example 16] | 64% | 114 mm Hg |
| O=C(CCCc1cccs1)NCCCn1ccnc1 [Example 17, N--[3-(1H--imidazol-1-yl)propyl]-2-thiophenebutyramide] | – | 121 mm Hg |
| O=C(NCCCn1ccnc1)C(=O)c1cccs1 [Example 18, N--[3-(1H--imidazol-1-yl)propyl]-α-oxo-thiophene acetamide] | 73% | 125 mm Hg |
| O=C(NCCCn1ccnc1)c1ccc(Cl)s1 [Example 19, 5-chloro-N--[3-(1H--imidazol-1-yl)propyl]thiophene-2-carboxamide] | 95% | 125 mm Hg |
| O=C(NCCn1ccnc1)c1sc2ccccc2c1Cl [Example 20, 3-Chloro-N-[2-(1H-imidazol-1-yl)ethyl]benzo[b]thiophene-2-carboxamide] | 70% | 117 mm Hg |
| CCc1nccn1CCCNC(=O)c1sc2ccccc2c1Cl [Example 22, 3-chloro-N--[3-(2-ethyl-1H--imidazol-1-yl)propyl]benzo[b]thiophene-2-carboxamide] | 55% | – |
| Cc1cn(CCCNC(=O)c2sc3ccccc3c2Cl)cn1 [Example 24, 3-chloro-N--[3-(4-methyl-1H--imidazol-1-yl)propyl]benzo[b]thiophene-2-carboxamide] | 98% | – |
| Cc1cn(CCCNC(=O)c2cccs2)cn1 [Example 25, N--[3-(4-methyl-1H--imidazol-1-yl)propyl]thiophene-2-carboxamide] | 51% | – |
| O=C(NCCCCn1ccnc1)c1ccco1 [Example 28, N-[4-(1H-Imidazol-1-yl)butyl]-2-furanecarboxamide] | 87% | – |
| O=C(NCCCCn1ccnc1)c1sc2ccccc2c1Cl [Example 29, 3-chloro-N--[4-(1H--imidazol-1-yl)butyl]benzo[b]thiophene-2-carboxamide] | 91% | – |
| O=C(NCCCCn1ccnc1)c1ccc(Cl)s1 [Example 30, 5-chloro-N--[4-(1H--imidazol-1-yl)butyl]thiophene-2-carboxamide] | – | 118 mm Hg |
| O=C(NCCCCn1ccnc1)c1cccs1 [Example 31, N--[4-(1H--imidazol-1-yl)butyl]thiophene-2-carboxamide] | 95% | 114 mm Hg |

Source: patent US4489089A, “Substituted N-[ω-(1H-imidazol-1-yl)alkyl]-amides” (American Cyanamid Company, priority 1984, dated 1984)
